# Experimental data published in paper PMC3112382, “Crystal structures of a halophilic archaeal malate synthase from Haloferax volcanii and comparisons with isoforms A and G” (BMC Structural Biology, 2011).
# Key:
# [1] = biological target: T1, H. volcanii malate synthase isoform H (hvMSH) (Haloferax volcanii, UniProt D4GTL2); assay: X-ray crystal structure, […] Å; assay type: binding; conditions: ~0.15 M acetyl-CoA, ~70 mM pyruvate, 50 mM MgCl2 soak, active site
# T1 construct: gene aceB; full-length native enzyme, purified from H. volcanii grown on acetate, no tag; trimer/hexamer equilibrium
# T1 sequence (D4GTL2 1-433): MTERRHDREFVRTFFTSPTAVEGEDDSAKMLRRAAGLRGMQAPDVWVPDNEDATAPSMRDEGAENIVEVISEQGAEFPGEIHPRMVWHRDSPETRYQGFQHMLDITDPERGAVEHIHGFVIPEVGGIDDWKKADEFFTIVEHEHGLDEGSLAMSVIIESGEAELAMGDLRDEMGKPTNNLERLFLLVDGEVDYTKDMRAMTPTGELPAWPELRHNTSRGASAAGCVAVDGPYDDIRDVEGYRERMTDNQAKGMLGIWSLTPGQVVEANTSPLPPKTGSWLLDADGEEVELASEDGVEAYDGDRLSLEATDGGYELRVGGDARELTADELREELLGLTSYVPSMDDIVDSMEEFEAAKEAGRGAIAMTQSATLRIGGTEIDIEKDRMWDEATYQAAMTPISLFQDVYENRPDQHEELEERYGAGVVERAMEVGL
# [2] = biological target: T1, H. volcanii malate synthase isoform H (hvMSH); assay: X-ray crystal structure, […] Å; assay type: binding; conditions: ~0.1 M glyoxylate and ~0.1 M MgCl2 soak; active site, on Mg2+; second, weak glyoxylate at acetyl-CoA thioester position; low-occupancy complex (3 mM glyoxylate) is 3PUG
smiles,measurement,setting,value
CC(=O)SCCNC(=O)CCNC(=O)[C@H](O)C(C)(C)COP(=O)(O)OP(=O)(O)OC[C@H]1O[C@@H](n2cnc3c(N)ncnc32)[C@H](O)[C@@H]1OP(=O)(O)O [acetyl-coenzyme A],"X-ray crystal structure, 1.95 Å",[1]; ternary complex with pyruvate,"one molecule of pyruvate, one molecule of acetyl-CoA, one magnesium ion"
O=CC(=O)O [glyoxylate],"X-ray crystal structure, 2.51 Å",[2],One glyoxylate molecule is bound to the Mg2+ at the active site
CC(=O)C(=O)O [pyruvate],"X-ray crystal structure, 1.95 Å","[1]; ternary complex with acetyl-CoA, glyoxylate position","one molecule of pyruvate, one molecule of acetyl-CoA, one magnesium ion"
